The test system of data set [1] is indomethacin-induced ulcers. Put plainly: indomethacin-induced ulcer formation in rats (procedure of Lee et al.). Format: in vivo, rat. The following applies: for ED50: po; for Relative Potency ± S.E.M.: relative to 2-(3-hydroxy-3-methyloctyl)-5-oxocyclopentaneheptanoic acid, procedure of Example 1. An excerpt:
The gastrointestinal side effect inhibiting property of the compositions of the present invention are demonstrable in standard pharmacological tests. For example, in procedures similar to the in vivo test described by Y. H. Lee et al., cited above, for evaluating the effects of a test compound on indomethacin-induced ulcers in the rat, the compounds of formula 1 are shown to be effective, see Examples 1 and 2.
By following the procedure of Lee et al., cited above, for the production of the indomethacin-induced ulcer in rats, the property of the compounds of formula 1 to inhibit such ulcers is readily demonstrable. More specifically: male albino rats (170 - 190 g; Sprague-Dawley strain, Canadian Breeding Laboratories), caged individually, were fasted 24 hr with free access to water until the start of the experiment. Indomethacin was given intraperitoneally. The animals were killed 5 hr later and the ulcer formation in the glandular portion of the stomach determined. The compound of formula 1 was administered perorally immediately after the indomethacin. The percent inhibition of ulcer formation versus the semilogarithm of the dose (mg/kg) was plotted and the dose at which 50% inhibition occurred (ED50) was read from the graph.
Analysis of variance and regression study were used in the evaluation of the data.
Indomethacin was administered (0.5 ml) as an aqueous suspension (2 drops of polysorbate 80 per 14 ml of H2 O). Polysorbate 80 is a mixture of sorbitol and its anhydrides copolymerized with ethylene oxide. The compounds of formula 1 were given (0.2 ml) in a 0.2% sodium carboxymethyl cellulose aqueous suspension.
The results of such a test for 2-(3-hydroxy-3-methyloctyl)-5-oxocyclopentaneheptanoic acid to inhibit the ulcer formation induced by 20 mg/kg i.p. of indomethacin are given in the following table. For comparative purposes the results obtained for propantheline bromide are also included.
By following the procedure of Example 1 the effects of compounds of formula 1 other than 2-(3-hydroxy-3-methyloctyl)-5-oxocyclopentaneheptanoic acid on indomethacin-induced ulcers are demonstrable. Accordingly, the results obtained with such other compounds of formula 1 are exemplified by the following list in which the relative potency of each compound with respect to 2-(3-hydroxy-3-methyloctyl)-5-oxocyclopentaneheptanoic acid is noted.

In data set [2] the test system is indomethacin-induced ulcers. The following applies: cited from earlier work.
In data set [3] the test system is diarrhea. Put plainly: diarrhea in female mice or rats, peroral. Format: in vivo, mouse. The note with it: 60 minutes; for diarrheal effect: female mice, 240 mg/kg peroral.
For data set [4], the system named is gastric acid secretion. Put plainly: inhibition of gastric acid secretion in the rat (method of Lippmann). The note with it: unit inferred, read-out: Ed50 for inhibiting gastric acid secretion. In kind it is in vivo. The method, then:
A comparison of the ED50 for inhibiting indomethacin-induced ulcers and the ED50 for inhibiting gastric acid secretion for compounds of formula 1 is exemplified in the following list. Both ED50 's are determined in the rat. The ED50 for inhibiting indomethacin-induced ulcers is obtained according to the method of Example 1. The ED50 for inhibiting gastric acid secretion is obtained according to the method of Lippmann, cited above.

The conditions of data set [5]: cited from earlier work; for stability: natural prostaglandins, T.O. Oesterling et al.
The subject of data set [6] is phenylbutazone-induced ulcers. Put plainly: phenylbutazone-induced ulcer formation in rats. In kind it is in vivo, rat. The following applies: for % Inhibition of ulcer formation / Ulcers Formed, Mean ± S.E.M.: phenylbutazone 300 mg/kg p.o., 18 hr.
Data set [7] deals with ulcers. The following applies: man; N.O. Rothermich 1966; cited from earlier work.
The test system of data set [8] is diarrheal effect. The note with it: larger doses; Misiewicz et al. 1969; cited from earlier work.
The test system of data set [9] is gastric acid secretion. The following applies: W. Lippmann 1971; cited from earlier work.
The mark [10] stands for this setting: Rattus norvegicus, indomethacin 20 mg/kg i.p., 5 hr, read-out: ED50 (dose at which 50% inhibition of ulcer formation occurred).
Setting [11] is: 5 h, rat, method of Example 1 (dose in mg/kg there), unit inferred, read-out: ED50 for inhibiting indomethacin-induced ulcer.

Several values for one entry are separate records, joined by “and”; a condition that tells them apart may be missing. Equal values may be shown once. Read-outs that look alike come from different tables or passages of the source.

Data on 16 compounds can be found in US3937801A, “Reducing the incidence of gastrointestinal side effects during the treatment of inflammatory conditions with antiinflammatory drugs” (priority 1973, dated 1976).

Consider `CC(C)[N+](C)(CCOC(=O)C1c2ccccc2Oc2ccccc21)C(C)C` [propantheline bromide, reference compound], for which the “% Inhibition of ulcer formation” value in data set [1] (1.5 mg/kg p.o., indomethacin 20 mg/kg i.p., 5 hr) is recorded as 36%; in data set [1] (3.0 mg/kg p.o., indomethacin 20 mg/kg i.p., 5 hr), 52%; in [1] (6.0 mg/kg p.o., indomethacin 20 mg/kg i.p., 5 hr), 61%. Also, the “Ulcers Formed, Mean ± S.E.M.” value in data set [1] (1.5 mg/kg p.o., indomethacin 20 mg/kg i.p., 5 hr, n=9, P < 0.05) turned out to be 6.9 ± 0.9; in data set [1] (3.0 mg/kg p.o., indomethacin 20 mg/kg i.p., 5 hr, n=9, P < 0.01), 5.0 ± 1.0; in data set [1] (6.0 mg/kg p.o., indomethacin 20 mg/kg i.p., 5 hr, n=8, P < 0.01), 4.1 ± 0.9. The “times less potent than 2-(3-hydroxy-3-methyloctyl)-5-oxocyclopentaneheptanoic acid” value in [1] (ED50 comparison, p.o., indomethacin-induced ulcers) worked out at 27 times. In data set [1] (setting [10]), the ED50 worked out at 3 mg/kg. Further, the “reduction of the ulcerogenic activity of indomethacin” value in data set [2] (rats, Lee et al. 1971, dose relative to usual therapeutic dose) is “proved to be effective but only when administered at does much higher than their usual therapeutic dose”.
Turning to `CCCCCC(C)(O)CCC1CCC(=O)C1CCCCCCC(=O)O` (single isomer, unassigned; (-)) [(-)-2-(3-Hydroxy-3-methyloctyl)-5-oxocyclopentaneheptanoic a] [(-)-2-(3-Hydroxy-3-methyloctyl)-5-oxocyclopentaneheptanoic acid], the ED50 for inhibiting indomethacin-induced ulcer in data set [1] (rat, method of Example 1 (dose in mg/kg there), unit inferred, 300 min) was determined as 0.11 mg/kg. Moreover, in [1], the “Relative Potency ± S.E.M.” value is reported as 1.01 ± 0.40. Moreover, the diarrheal effect result in [3] is reported as “do not cause an appreciable diarrheal effect”.
For the compound `CCCCC(C)(C)C(O)C=C[C@@H]1CCC(=O)[C@H]1C/C=C\CCCC(=O)O` (relative stereo) [trans,cis-7-[2-(3-Hydroxy-4,4-dimethyl-1-octenyl)-5-oxocyclopentyl]-5-heptenoic acid], the ED50 in data set [1] (setting [11]) is approximately 0.02 mg/kg; in [4] it was approximately 1 mg/kg. Besides, the “Relative Potency ± S.E.M.” value in [1] came to 4.8.
Turning to “trans-2-(3-Methyl-3-oxooctyl)-5-oxocyclopentaneheptanoic acid”, the “Relative Potency ± S.E.M.” value in data set [1] is 0.43 ± 0.14.
`CCCCC[C@H](O)/C=C/[C@H]1[C@H](O)CC(=O)[C@@H]1C/C=C\CCCC(=O)O` [prostaglandin E2]: the “test animals with diarrhea” value in [3] (43 mg/kg peroral) was 50%. For the same compound, the stability result in data set [5] is given as “relatively unstable”. The “dehydration of the 11-hydroxy group” value in [5] (under both basic and acidic conditions) was “participates readily in dehydration reactions under both basic and acidic conditions”.
On to `CCCCCC(C)(O)CCC1CCC(=O)C1CCCCCCC(=O)O` (single isomer, unassigned; (+)) [(+)-2-(3-Hydroxy-3-methyloctyl)-5-oxocyclopentaneheptanoic acid], for which the ED50 in [1] (setting [11]) was determined as 0.11 mg/kg.
Consider `O=C(O)CCCCCC[C@@H]1C(=O)CC[C@H]1C=CC(O)CC1CCCCC1` (relative stereo) [trans-2-(4-Cyclohexyl-3-hydroxy-1-butenyl)-5-oxocyclopentaneheptanoic acid], for which the “Relative Potency ± S.E.M.” value in data set [1] was found to be 0.13 ± 0.06.
For `CCCCCC(O)C=C[C@@H]1CCC(=O)[C@H]1CCCCCCC(=O)O` (relative stereo) [trans-2-(3-Hydroxy-1-octenyl)-5-oxocyclopentaneheptanoic acid], the “Relative Potency ± S.E.M.” value in data set [1] was 0.74 ± 0.20.
Consider `CCCCCC(C)(O)CCC1CCC(=O)C1CCCCCCC(=O)O` (stereo not shown) [2-(3-hydroxy-3-methyloctyl)-5-oxocyclopentaneheptanoic acid], for which the “% Inhibition of ulcer formation” value came to 43% in [1] (0.075 mg/kg p.o., indomethacin 20 mg/kg i.p., 5 hr); 56% in data set [1] (0.15 mg/kg p.o., indomethacin 20 mg/kg i.p., 5 hr); 69% in data set [1] (0.30 mg/kg p.o., indomethacin 20 mg/kg i.p., 5 hr); 24% in data set [6] (7.5 mg/kg p.o.); 48% in [6] (15 mg/kg p.o.); 78% in [6] (30 mg/kg p.o.). Moreover, the “Ulcers Formed, Mean ± S.E.M.” value in data set [1] (0.075 mg/kg p.o., indomethacin 20 mg/kg i.p., 5 hr, n=9, P < 0.01) was determined as 5.9 ± 0.8; in data set [1] (0.15 mg/kg p.o., indomethacin 20 mg/kg i.p., 5 hr, n=9, P < 0.01), 4.6 ± 0.6; in data set [1] (0.30 mg/kg p.o., indomethacin 20 mg/kg i.p., 5 hr, n=9, P < 0.001), 3.2 ± 0.5; in data set [6] (7.5 mg/kg p.o., n=10), 4.1 ± 1.0; in data set [6] (15 mg/kg p.o., n=9) it was 2.8 ± 0.6; in [6] (30 mg/kg p.o., n=9) it was 1.2 ± 0.5. Also, the ED50 is 0.11 mg/kg in data set [1] (setting [10]); 0.11 mg/kg in data set [1] (setting [11]); 4.3 mg/kg in data set [4]; approximately 15 mg/kg in [6] (Rattus norvegicus, po, over an 18 hr period). Also, the diarrheal effect entry in data set [3] is recorded as “do not cause an appreciable diarrheal effect”.
As for `CCCCC[C@H](O)/C=C/[C@@H]1[C@@H](CCCCCCC(=O)O)[C@@H](O)C[C@H]1O` [PGF1α], the stability result in [5] is listed as “relatively unstable”.
For the compound `CCCCCC(C)(O)CCC1CCC(=O)C1CCCCCCC(=O)O` (single isomer, unassigned; (+)) [(+)-2-(3-Hydroxy-3-methyloctyl)-5-oxocyclopentaneheptanoic a] [(+)-2-(3-Hydroxy-3-methyloctyl)-5-oxocyclopentaneheptanoic acid], the “Relative Potency ± S.E.M.” value in [1] turned out to be 1.02 ± 0.42. In data set [3], the diarrheal effect entry is listed as “do not cause an appreciable diarrheal effect”.
With `CCCCCC(O)CC[C@@H]1CCC(=O)[C@H]1CCCCCCC(=O)O` (relative stereo) [trans-2-(3-Hydroxyoctyl)-5-oxocyclopentaneheptanoic acid], in data set [1], the “Relative Potency ± S.E.M.” value is 0.45 ± 0.12 and 0.64 ± 0.20.
Still for that read-out and setting: under `CCCCCC(C)(O)C=C[C@@H]1CCC(=O)[C@H]1CCCCCCC(=O)O` (relative stereo) [trans-2-(3-Hydroxy-3-methyl-1-octenyl)-5-oxocyclopentaneheptanoic acid] stands 1.07 ± 0.33.
With `COc1ccc2c(c1)c(CC(=O)O)c(C)n2C(=O)c1ccc(Cl)cc1` [indomethacin], the “correlation between dosage and occurrence of ulcers” value in [2] (rat, Lee et al.) was “found a similar correlation in the rat”; in data set [7], “found a correlation between indomethacin dosage and the occurence of ulcers in man”.
Turning to `CCCCC[C@H](O)/C=C/[C@H]1[C@H](O)CC(=O)[C@@H]1CCCCCCC(=O)O` [prostaglandin E1], in data set [8], the diarrheal effect result is recorded as “diarrheal effect associated with larger doses”. The “effect on gastric acid secretion” value in data set [9] is “inhibit gastric acid secretion”.
Take `CCCCCC(O)C=C[C@@H]1CCC(=O)[C@H]1C/C=C\CCCC(=O)O` (single isomer, unassigned) [trans,cis-7-[2-(3-Hydroxy-1-octenyl)-5-oxocyclopentyl]-5-hep] [trans,cis-7-[2-(3-Hydroxy-1-octenyl)-5-oxocyclopentyl]-5-heptenoic acid]: the “Relative Potency ± S.E.M.” value in data set [1] is 0.37 ± 0.21 and 0.37 ± 0.14.
